From patent publication US6316644A, “Pilyethoxylated retinamide derivatives and process for preparing the same” (LG Chemical Ltd., priority 1998, dated 2001)
Like-named read-outs stand apart in the source and are kept apart here.

Experiments:
[1] = relative to retinoic acid; FASEB J., 10, 1014-1024, 1996; cited from earlier work
[2] = tested on: skin of 9-weeks aged naked female mouse; test: Test for organ incubation of skin (MTT assay)
Protocol: (§1) The test for organ incubation of skin was carried out by MTT assay method using naked female mouse.

[3] = pH 7.4
Protocol: The tests for identification of pharmacological activities of the compound of formula (I) according to the present invention were conducted as follows. First, the test for percutaneous absorption was carried out by cutting off the dorsal skin from 8-weeks aged female mouse, applying the test sample (35 mM) to the skin and then analysing the percutaneous absorption of the test sample by means of an apparatus for measuring percutaneous absorption (Franz cell) and HPLC.
Specifically, the dorsal skin of 8-weeks aged female mouse (naked mouse) was cut off and then 35 ml solution of the test sample was applied in an amount of 250 μl to the skin having a size of 1.7cm^2. Using the apparatus for measuring percutaneous absorption (Franz cell), after 24 hours, the absorbed materials were extracted respectively from 7 ml of the receptor solution [50 mM PBS buffer solution (pH=7.4) containing 2% VolPO20 Polyethylene oleyl ether (HLB=16)] and the skin and then quantitatively analyzed by high pressure liquid chromatography (HPLC).

V79-4 cells = test: Cytotoxicity test (MTT assay); type: cell-based, Chinese hamster; details: FIG. 2
Protocol: The cytotoxicity test was carried out by MTT assay method using V79-4 cells.

human fibroblasts = test: Test for collagen synthesis (tritiated proline, CSP)
Protocol: The same count of human fibroblasts was incubated in each well of 24-well plate for 24 hours and then the test sample was applied thereto at the concentration of 10^-4 to 10^-7 w %/ml. After 2 hours, tritiated proline (L-2,3-^3 H proline) was applied to the plate and then further incubated for 24 hours. The amount of collagen as newly synthesized and secreted by fibroblasts utilizing the culture medium was measured by calculating the amount of CPS (collagenous sensitive protein) on the basis of cpm (counting per minute) number of L-2,3-^3 H proline.

skin photoaging = details: cited from earlier work
auricular lymph node = details: mouse, in vivo
Protocol: Toxicol. 10(3); 173-180]. […] Each of the test sample was applied to both ears of Blab/c mouse in an amount of 50μl for 3 days and then auricular lymph node was isolated from mouse. Lymph node was micronized to monocellular state and then incubated for 24 hours with addition of radioisotope (^3 H-thymidine).

[4] = tested on: skin of 9-weeks aged naked female mouse
Protocol: as §1

skin = details: guinea pig, in vivo
Protocol: Assoc. Food and Drug Officials, US. Appraisal of the safety of chemicals in Food, Drugs and Cosmetics, pp46-59, Texas State Dept. of Health, Austin, Tex. and 2 Federal Register (1973): Method of testing primary irritant substances 38(187): pp1500-1541]. Six kinds of the test solutions were prepared at the concentration of 0.3% by using o/w formulation or Lexol GT-865 as the carrier vehicle. First, hair was removed from the portion (dorsal skin of mouse) for applying the test solution and then the naked portion was adapted to the environmental circumstance for 24 hours in order to minimize the skin irritability. The test solution and gauze were applied to the established portion (1.5 cm×1.5 cm) for applying the test solution, which was then sealed with the solid thin film and fixed with the elastic bandage for 48 hours in order to inhibit the evaporation and loss of the test sample. After 2 and 24 hours from removal of the closed patch (i. e. 50 and 72 hours after patch application, respectively), the degree of irritation was determined.

[5] = lipid-soluble; cited from earlier work
[6] = 0.3% in Lexol GT-865, MTT assay

Q: For `CC1=C(/C=C/C(C)=C/C=C/C(C)=C/C(=O)O[C@@H]2O[C@H](C(=O)O)[C@@H](O)[C@H](O)[C@H]2O)C(C)(C)CCC1` [retinoyl β-glucuronide (RAG), retinoyl β-glucuronide], which toxicity [1] is on record?
A: relatively reduced toxicity

Q: Which toxicity [1] does the source give for `CC1=C(/C=C/C(C)=C/C=C/C(C)=C/C(=O)Nc2ccc(O)cc2)C(C)(C)CCC1` [N-(4-hydroxy-phenyl)retinamide (4-HPR), N-(4-hydroxy-phenyl)retinamide] here?
A: relatively reduced toxicity

Q: Which Safety ([2]; control group, <0.05%) does the source give for `CCCCCCCCCCCCOS(=O)(=O)[O-].[Na+]` [Sodium lauryl sulfate] here?
A: minute irritation

Q: And the Safety ([2]; control group, <0.25%)?
A: moderate irritation

Q: And the Safety ([2]; control group, <0.5%)?
A: strong irritation

Q: For `CC1=C(/C=C/C(C)=C/C=C/C(C)=C/CO)C(C)(C)CCC1` [Retinol, retinol], which “Receptor solution (amount absorbed)” value [3] is on record?
A: 11.48 nmol

Q: With “polyethoxylated retinamide of formula (I) (R=methyl, n=9.8)” as the compound, how does the cytotoxicity (V79-4 cells; 10^-3 w %/ml or more) read?
A: exhibits gradually

Q: And the cytotoxicity (V79-4 cells; 10^-4 w %/ml and below)?
A: only a weak toxicity

Q: What about the “effect of increasing collagen synthesis at cytotoxic concentration” value (human fibroblasts; 10^-3 w %/ml or more) of the same compound?
A: does not exhibit any increasing effect

Q: What about the “increase in collagen synthesis (highest effect)” value (human fibroblasts; 10^-7 w %/ml) of the same compound?
A: 33.8%

Q: What about the “concentration at which effect of increasing collagen synthesis begins” value (human fibroblasts; limiting concentration at which any toxicity is not caused) of the same compound?
A: below 10^-4 w %/ml

Q: For `COc1ccc(C(C)=O)c(OC(=O)/C=C(C)/C=C/C=C(C)/C=C/C2=C(C)CCCC2(C)C)c1` [2-(all-trans-retinoyloxy)-4-methoxyacetophenone], which “inhibition of skin cancer and photoaging” value (skin photoaging; U.S. Pat. No. 4,677,120) is on record?
A: exhibits an effect of inhibiting skin cancer and photoaging

Q: With `CCCCCCCCCCCCCCCC(=O)OC/C=C(C)/C=C/C=C(C)/C=C/C1=C(C)CCCC1(C)C` [Retinol palmitate, retinol palmitate] as the compound, how does the “allergy induction in comparison to ethanol” value (auricular lymph node) read?
A: six times or more

Q: What about the Degree of irritation [4] of the same compound?
A: 0.34

Q: What about the Safety [4] of the same compound?
A: minute irritation

Q: And the “irritation” value [4]?
A: weak irritation

Q: And the “effect of increasing collagen synthesis” value (human fibroblasts; 10^-4 to 10^-7 w %/ml, FIG. 1)?
A: does substantially not exhibit an effect of increasing collagen synthesis

Q: What about the “Receptor solution (amount absorbed)” value [3] of the same compound?
A: 0.48 nmol

Q: What about the “difference between the irritation degrees” value (skin) of the same compound?
A: no significant difference

Q: For `CC1=C(/C=C/C(C)=C/C=C/C(C)=C/C(=O)O)C(C)(C)CCC1` [Retinoic acid, all-trans-retinoic acid], which “allergy induction in comparison to ethanol” value (auricular lymph node) is on record?
A: six times or more

Q: What about the skin photoaging (skin photoaging; cream preparation applied to skin, JAMA 259, 1988) of the same compound?
A: can be improved

Q: What about the “irritation” value ([2]; 0.3%) of the same compound?
A: strong irritation

Q: What about the Degree of irritation [2, 6] of the same compound?
A: 0.11

Q: And the Safety [2, 6]?
A: strong irritation

Q: What about the activation at 1e-06 w %/ml (human fibroblasts; Homo sapiens, Fibroblast, read-out: increase in collagen synthesis) of the same compound?
A: ≤ 21.7%

Q: And the “Receptor solution (amount absorbed)” value [3]?
A: 11.40 nmol

Q: What about the skin absorption [5] of the same compound?
A: low skin absorption

Q: What about the “difference between the irritation degrees” value (skin) of the same compound?
A: no significant difference
